Experiments:
[1] = Crystal; for mass density: 298.15 K, 101.33 kPa, Pycnometric method; for vapor or sublimation pressure: Calculated from knudsen effusion weight loss; for Normal melting temperature: DTA
[2] = molar heat capacity at constant pressure; conditions: 101.33 kPa, Crystal

c1ccc(Cc2nc3ccccc3[nH]2)cc1 [bendazol]
[1]
Conditions | Normal melting temperature [°C] | mass density [kg/m3]
– | 297.4 | 1140

Conditions | molar heat capacity at constant pressure [J/K/mol] | vapor or sublimation pressure [kPa]
[1], 393.54 K | – | 0.000125
[1], 396.81 K | – | 0.000178
[1], 400.16 K | – | 0.000248
[1], 402.04 K | – | 0.000299
[1], 405.47 K | – | 0.000419
[1], 409 K | – | 0.000596
[1], 412.48 K | – | 0.000829
[2], 270.15 K | 215.86 | –
[2], 273.15 K | 218.67 | –
[2], 275.15 K | 220.51 | –
[2], 280.15 K | 223.25 | –
[2], 285.15 K | 227.59 | –
[2], 290.15 K | 228.63 | –
[2], 295.15 K | 228.79 | –
[2], 298.15 K | 228.92 | –
[2], 300.15 K | 229.04 | –
[2], 305.15 K | 231.75 | –
[2], 310.15 K | 233.79 | –
[2], 315.15 K | 237.21 | –
[2], 320.15 K | 240.29 | –
[2], 325.15 K | 244.91 | –
[2], 330.15 K | 248.5 | –
[2], 335.15 K | 252.54 | –
[2], 340.15 K | 255.29 | –
[2], 345.15 K | 260.53 | –
[2], 350.15 K | 261.16 | –
[2], 355.15 K | 264.99 | –
[2], 360.15 K | 269.16 | –
[2], 365.15 K | 272.11 | –
[2], 370.15 K | 283.19 | –
[2], 375.15 K | 285.9 | –
[2], 380.15 K | 289.9 | –
[2], 385.15 K | 293.81 | –
[2], 390.15 K | 298.39 | –
[2], 395.15 K | 303.73 | –
[2], 400.15 K | 307.64 | –
[2], 405.15 K | 312.35 | –
[2], 410.15 K | 314.26 | –
[2], 415.15 K | 322.84 | –
[2], 420.15 K | 329.18 | –
[2], 425.15 K | 333.59 | –
[2], 430.15 K | 342.59 | –
[2], 435.15 K | 349.42 | –
[2], 440.15 K | 359.96 | –

c1ccc(-c2nc3ccccc3[nH]2)cc1 [2-phenylbenzimidazole]
[1]
Conditions | Normal melting temperature [°C] | mass density [kg/m3]
– | 191.0 | 1060

[2]
Conditions | molar heat capacity at constant pressure [J/K/mol]
268.15 K | 185.23
270.15 K | 186.33
273.15 K | 188.41
275.15 K | 189.51
280.15 K | 193.33
285.15 K | 197.27
290.15 K | 201.29
295.15 K | 205.63
298.15 K | 208.09
300.15 K | 209.51
305.15 K | 215.89
310.15 K | 220.71
315.15 K | 224.47
320.15 K | 228.09
325.15 K | 231.72
330.15 K | 235.41
335.15 K | 238.58
340.15 K | 242.27
345.15 K | 245.77
350.15 K | 249.26
355.15 K | 252.83
360.15 K | 256.06
365.15 K | 259.95
370.15 K | 263.64
375.15 K | 266.16
380.15 K | 269.14
385.15 K | 272.38
390.15 K | 276.33
395.15 K | 280.47
400.15 K | 285
405.15 K | 288.95
410.15 K | 292.32
415.15 K | 295.82
420.15 K | 300.09
425.15 K | 304.1
430.15 K | 308.05
435.15 K | 312.13
440.15 K | 316.02
445.15 K | 319.51
450.15 K | 322.1
